According to US20110045982A1, “HERBICIDAL COMPOSITION” (NOF CORPORATION, priority 2009, published 2011):

The compounds below were run on Japanese white rabbits. Conditions: hydrolysate of base compound, 50% in purified water, 0.1 mL instilled, three male rabbits; observed 1, 6, 12 and 24 hr.
Experimental: Assuming that the base compound is hydrolyzed in the natural world, the biological reaction of hydrolysate was evaluated by eye irritancy. To be specific, the base compound (10 g) shown in Table 1 was added to 100 mL of water, and the mixture was adjusted to pH 10 with an aqueous sodium hydroxide solution. The mixture was placed in a flask, heated to 80° C., and stirred for 1 hr while adding an aqueous sodium hydroxide solution as appropriate every 10 min to maintain pH 10. The mixture was adjusted to pH 3.5 with an aqueous hydrochloric acid solution, and the mixture was washed 3 times with hexane to remove fatty acid. The solution was neutralized with an aqueous sodium hydroxide solution, evaporated and filtered to remove sodium chloride. The viscous liquid was diluted with purified water to a concentration of 50% and used as an eye irritancy measurement sample.
Using three male Japanese white rabbits per sample, the above-mentioned eye irritancy measurement sample (0.1 mL) was instilled into the unilateral intracapsular conjunctiva of each test animal, and the upper and lower eyelids were gently closed and maintained for about 1 sec. The other eye was used as control without treatment. After instillation, the cornea, iris, conjunctiva and the like were observed 1, 6, 12 and 24 hr later.

SMILES	eye irritancy of hydrolysate
CCCCCCCCC(=O)OCCO [compound 4, ethylene glycol monopelargric acid ester, reference compound]	problematic
CCCCCCCCCCCC(=O)OCC(O)CO (stereo not drawn) [Ex. 7, Glycerol monolauric acid ester]	no problem
CCCCCCCC(=O)OCC(COC(=O)CCCCCCC)OC(=O)CCCCCCC [Ex. 1, Glycerol tricaprylic acid ester]	no problem
